Laboratory results as given in patent US6579720B1, “Method for activity profiling compound mixtures” (BDC Pharma LLC, priority 1999, dated 2003).

Experiments:
[1] = IAM chromatography, normalized capacity factor on esterIAM.PE C10/C3; format: physicochemical; conditions: 15% acetonitrile + 85% 0.03 M NH4OAc buffer pH 7.4, 1 mL/min
Text: (§1) The preferred, if not only surfaces capable of measuring membrane binding constants so far are from a group of immobilized artificial membranes (IAMs). IAMs consist of a monolayer of phospholipids covalently immobilized to a silica surface. Five types of IAM surfaces are typically used: phosphatidylcholine (PC), phosphatidylethanolamine (PE), phosphatidylserine (PS), sphingomyelin (SM), and cholesterol (CL). These IAM silica surfaces are used as the stationary phase in high performance liquid chromatography (HPLC). The IAM columns can be run in parallel with one single MS detection system (multi-column LC/MS) or successively using a one-column LC/MS instrument.
(§2) Dimensions of the columns: 3.0×0.46 cm.
(§3) Wavelength of the UV detector: 220 nm.
(§4) Mobile phase composition: 15% of acetonitrile+85% of 0.03 M NH4OAc buffer (pH 7.4).
(§5) All five compounds were chromatographed on ^esterIAM.PC^C10/C3, ^esterIAM.PE^C10/C3, ^esterIAM.PS^C10/C3, IAM.SM^C10/C3 using the experimental conditions described above. A representative set of normalized capacity factor values (αk′) of these drugs are presented in Table 6 [It should be noted that these values are very much dependent on packing material quality and density, as well as mobile phase composition (particularly the pH). Thus these values are not absolute and may vary from column to column within the same column type].

[2] = IAM chromatography, normalized capacity factor on esterIAM.PS C10/C3; format: physicochemical; conditions: 15% acetonitrile + 85% 0.03 M NH4OAc buffer pH 7.4, 1 mL/min
Text: as §1, §2, §3, §4, §5

[3] = IAM chromatography, normalized capacity factor on IAM.SM C10/C3; format: physicochemical; conditions: 15% acetonitrile + 85% 0.03 M NH4OAc buffer pH 7.4, 1 mL/min
Text: as §1, §2, §3, §4, §5

[4] = IAM chromatography, normalized capacity factor on esterIAM.PC C10/C3; format: physicochemical; conditions: 15% acetonitrile + 85% 0.03 M NH4OAc buffer pH 7.4, 1 mL/min
Text: as §1, §2, §3, §4, §5

[5] = tested on: antibody of the Benzodiazepines ELISA (specific for compounds belonging to the Benzodiazepine family); experiment: Benzodiazepine ELISA (Neogen competitive ELISA test kit); format: binding; conditions: experiment C, 7-drug mixture; ELISA fingerprint compared with chromatographic fingerprints
Text: (§6) ELISA test kits were purchased from Neogen Corporation, Lexington, Ky. […] Structural features that typically produce a positive response for each of these assays are described on FIG. 11.
(§7) ELISA is a method of analysis that relies on specific interactions between antibodies and antigens to detect a variety of substances. The assay (Neogen) operates on the basis of competition between the horseradish peroxidase (HRP) enzyme conjugate and the analyte in the sample for specific binding sites on the precoated antibody microplate. The test kits used for the experiment are 96-well plates precoated with a specific antibody. As described in FIG. 12, the sample or standard solution is first added to the precoated antibody microplate. Next, the diluted enzyme conjugate is added and the mixture is shaken and then incubated at room temperature for one hour. During incubation, competition for binding sites on the microplate is taking place. The plate is then washed removing all unbound material. The bound enzyme conjugate is detected by the addition of a tetramethylbenzidine (TMB) based substrate which generates an optimal color after 30 minutes. […] The extent of color development is inversely proportional to the amount of analyte in the sample or standard. […] Typically, the sensitivity of the selected ELISA assays ranges from ˜0.1 to 20-30 ng/mL depending on the substrate. […]

[6] = tested on: antibody of the Haloperidol ELISA (specific for Haloperidol); experiment: Haloperidol ELISA (Neogen competitive ELISA test kit); format: binding
Text: as §6, §7

tricyclic antibody = experiment: Tricyclic ELISA (Neogen competitive ELISA test kit); format: binding; conditions: experiment C, 7-drug mixture; ELISA fingerprint compared with chromatographic fingerprints
Text: as §6, §7

## Cc1cn([C@H]2C[C@H](N=[N+]=[N-])[C@@H](CO)O2)c(=O)[nH]c1=O [AZT]
[1]
  IAM.PE (αk′): 0.76
[2]
  IAM.PS (αk′): 0.36
[3]
  IAM.SM (αk′): 0.26
[4]
  IAM.PC (αk′): 0.36

## CN1C(=O)CN=C(c2ccccc2)c2cc(Cl)ccc21 [Diazepam]
[5]
  Benzodiazepine ELISA activity assigned to compound: detected by the Benzodiazepine ELISA assay

## O=C(CCCN1CCC(O)(c2ccc(Cl)cc2)CC1)c1ccc(F)cc1 [Haloperidol]
[6]; experiment B, 70-drug mixture, activity profile compared with chromatographic fingerprints
  Haloperidol ELISA activity assigned to compound: activity should be assigned to Haloperidol
[6]; experiment C, 7-drug mixture, ELISA fingerprint compared with chromatographic fingerprints
  Haloperidol ELISA activity assigned to compound: only matches the chromatographic fingerprint of Haloperidol

## COc1cc(CCN)cc(OC)c1OC [Mescaline]
[1]
  IAM.PE (αk′): 1.95
[2]
  IAM.PS (αk′): 11.39
[3]
  IAM.SM (αk′): 0.49
[4]
  IAM.PC (αk′): 0.62

## CCN(CC)C(=O)c1cccnc1 [Nikethamide]
[1]
  IAM.PE (αk′): 1.55
[2]
  IAM.PS (αk′): 0.61
[3]
  IAM.SM (αk′): 0.30
[4]
  IAM.PC (αk′): 0.33

## CCn1cc(C(=O)O)c(=O)c2cc(F)c(N3CCNCC3)cc21 [Norfloxacin]
[1]
  IAM.PE (αk′): 1.31
[2]
  IAM.PS (αk′): 8.09
[3]
  IAM.SM (αk′): 2.09
[4]
  IAM.PC (αk′): 0.64

## CN1CCCN=C1COC(=O)C(O)(c1ccccc1)C1CCCCC1 (stereo not drawn) [Oxyphencyclimine]
Tricyclic antibody
  Tricyclic ELISA activity assigned to compound: detected

## Olazoline
[1]
  IAM.PE (αk′): 1.19
[2]
  IAM.PS (αk′): 4.72
[3]
  IAM.SM (αk′): 0.49
[4]
  IAM.PC (αk′): 0.52
